Experimental data as given in patent publication US7833991B2, “Amine compound and use thereof” (Kureha Corporation, priority 2002, dated 2010).
pEC50: −log10 of the molar value.

Legend:
CXCR4 = target: T1, CXCR4 (Homo sapiens, UniProt P61073); assay: Inhibition of 125I-SDF-1α binding to receptors CXCR4 on MT-4 cells (Test Examples 2 and 5); details: binding-inhibition % at 0.1 μM, as in Test Example 2; Table 5; read-out: CXCR4 Activity % at 0.1 μM
T1 construct: endogenous in cells; host or cells: MT-4 cells
Procedure: MT-4 cells (5×10^6/0.2 ml/well) were cultured on a 24-well microtiter plate. After the cells were incubated for 24 hours at 37° C. in a carbon dioxide gas incubator, a culture medium was replaced with a buffer solution (0.1% BSA-containing RPMI-1640). Together with a ligand ^125I-SDF-1α, (specific activity: 2,200 Ci/mmol; available from Daiichi Pure Chemicals Co., Ltd. (Tokyo)), test materials with various concentrations were subjected to a binding reaction for 2 hours under ice-cooling. […] Then, a rate of inhibition of the binding between radio-active ligands and receptors CXCR4 by a test material was calculated (a binding-inhibition % at 0.1 μM).
(§1) Compounds of the present invention having various substituted and unsubstituted heterocyclic rings for the substituent A2 of formula (1) were tested for antiviral (anti-HIV) activity as in Test Example 1 and for CXCR4 activity as in Test Example 2. The compounds, various substituents of the compounds, antiviral activity represented by the concentration required for inhibition of all disorder due to HIV injection by 50% (EC50: 50% Effective Concentration, μM), and CXCR4 activity calculated as a rate of inhibition of the binding between radioactive ligands and CXCR4 receptors by a test material (a binding-inhibition % at 0.1 μM) are shown in Table 5: […]

[1] = system: HIV-1IIIB infected MT-4 cells; assay: Antiviral activity in HIV-1IIIB infected MT-4 cells, MTT method (Test Examples 1 and 5); format: cell-based; details: Human immunodeficiency virus 1, MT4; as in Test Example 1; Table 5; read-out: HIV Activity EC50
Procedure: Immediately after infection, HIV-1IIIB infected MT-4 cells (3.0×10^4/well, MOI (Multiplicity of infection): 0.01) were added to a 96-well microtiter plate together with the test compounds having different concentrations. The cells were cultured in a carbon dioxide incubator at 37° C. for 5 days, and the number of living cells was measured in accordance with the MTT (tetrazolium) method (Pawels, et al., Journal of Virology Method, 20, 309-321 ([…])). The antiviral activity is represented by the concentration required for inhibition of cell disorder due to HIV by 50% (EC50: 50% Effective Concentration) (μM), and the results are shown in Table 2.
as §1

T1 sequence (P61073 whole entry): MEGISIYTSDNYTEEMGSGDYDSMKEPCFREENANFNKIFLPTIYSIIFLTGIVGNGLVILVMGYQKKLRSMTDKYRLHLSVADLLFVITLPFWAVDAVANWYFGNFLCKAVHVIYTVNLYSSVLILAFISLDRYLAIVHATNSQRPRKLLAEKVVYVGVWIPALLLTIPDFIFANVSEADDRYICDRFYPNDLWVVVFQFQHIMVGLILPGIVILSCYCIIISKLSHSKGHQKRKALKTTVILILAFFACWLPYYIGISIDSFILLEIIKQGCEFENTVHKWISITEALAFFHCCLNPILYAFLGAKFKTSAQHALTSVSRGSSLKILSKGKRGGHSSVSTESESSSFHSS

Structure (SMILES)	inhibition at 0.1 µM (CXCR4) [%]	pEC50 [1]
CCCN(CCC)c1ccc(NC(=O)c2ccc(CN(Cc3ncc[nH]3)Cc3ncc[nH]3)cc2)cc1 [Compound No. 15, 4-{[bis(1H-imidazol-2-ylmethyl)-amino]-methyl}-N-(4-dipropylaminophenyl)-benzamide]	46.9	–
CCCN(CCC)Cc1cccc(NC(=O)c2ccc(CN(Cc3ncc[nH]3)Cc3ncc[nH]3)cc2)c1 [Compound No. 33, 4-{[bis(1H-imidazol-2-ylmethyl)-amino]-methyl}-N-(3-dipropylaminomethylphenyl)-benzamide]	97.8	7.34
CCCN(CCC)Cc1ccc(NC(=O)c2ccc(CN(Cc3ncc[nH]3)Cc3ncc[nH]3)c3ccccc23)cc1 [Compound No. 36, 4-{[bis(1H-imidazol-2-ylmethyl)-amino]-methyl}-naphtalene-1-carboxylic acid (4-dipropylaminomethylphenyl)-amide]	89.6	6.30
CCCN(CCC)Cc1ccc(NC(=O)c2ccc(CN(Cc3nccn3C)Cc3nccn3C)cc2)cc1 [Compound No. 41, 4-{[bis(1-methyl-1H-imidazol-2-ylmethyl)-amino]-methyl}-N-(4-dipropylaminomethylphenyl)-benzamide]	–	8.52
CCCN(CCC)Cc1ccc(NC(=O)c2ccc(CN(Cc3cc4ccccc4cn3)Cc3ncc[nH]3)cc2)cc1 [Compound No. 47, N-(4-dipropylaminomethylphenyl)-4-{[(1H-imidazol-2-ylmethyl)-(isoquinolin-3-ylmethyl)-amino]-methyl}-benzamide]	98.8	7.70
CCCN(CCC)Cc1ccc(NC(=O)c2ccc(CN(Cc3ccccn3)Cc3ncc[nH]3)cc2)cc1 [Compound No. 48, N-(4-dipropylaminomethylphenyl)-4-{[(1H-imidazol-2-ylmethyl)-(pyridin-2-ylmethyl)-amino]-methyl}-benzamide]	97.7	7.66
CCCN(CCC)Cc1ccc(NC(=O)c2ccc(CN(Cc3ncc[nH]3)Cc3ncccc3C)cc2)cc1 [Compound No. 53, N-(4-dipropylaminomethylphenyl)-4-{[(1H-imidazol-2-ylmethyl)-(3-methylpyridin-2-ylmethyl)-amino]-methyl}-benzamide]	97.7	8.05
CCCN(CCC)Cc1ccc(NC(=O)c2ccc(CN(Cc3ccc4ccccc4n3)Cc3ncc[nH]3)cc2)cc1 [Compound No. 55, N-(4-dipropylaminomethylphenyl)-4-{[(1H-imidazol-2-ylmethyl)-(quinolin-2-ylmethyl)-amino]-methyl}-benzamide]	21	6.20
CCCN(CCC)Cc1ccc(NC(=O)c2ccc(CN(Cc3ccc(C)cn3)Cc3ncc[nH]3)cc2)cc1 [Compound No. 56, N-(4-dipropylaminomethylphenyl)-4-{[(1H-imidazol-2-ylmethyl)-(5-methylpyridin-2-ylmethyl)-amino]-methyl}-benzamide]	98.8	8.52
CCCN(CCC)Cc1ccc(NC(=O)c2ccc(CN(Cc3ccncc3)Cc3ncc[nH]3)cc2)cc1 [Compound No. 58, N-(4-dipropylaminomethylphenyl)-4-{[(1H-imidazol-2-ylmethyl)-(pyridin-4-ylmethyl)-amino]-methyl}-benzamide]	18.6	7.01
CCCN(CCC)Cc1ccc(NC(=O)c2ccc(CN(Cc3ncc[nH]3)Cc3ncccc3OCC)cc2)cc1 [Compound No. 59, N-(4-dipropylaminomethylphenyl)-4-{[(1H-imidazol-2-ylmethyl)-(3-ethoxypyridin-2-ylmethyl)-amino]-methyl}-benzamide]	98.2	7.62
CCCN(CCC)Cc1ccc(NC(=O)c2ccc(CN(Cc3ncc[nH]3)Cc3nccc4ccccc34)cc2)cc1 [Compound No. 63, N-(4-dipropylaminomethylphenyl)-4-{[(1H-imidazol-2-ylmethyl)-(isoquinolin-1-ylmethyl)-amino]-methyl}-benzamide]	14.7	7.09
CCCN(CCC)Cc1ccc(NC(=O)c2ccc(CN(Cc3ncc[nH]3)Cc3ncc(C)c(OC)c3C)cc2)cc1 [Compound No. 64, N-(4-dipropylaminomethylphenyl)-4-{[(1H-imidazol-2-ylmethyl)-(4-methoxy-3,5-dimethylpyridin-2-ylmethyl)-amino]-methyl}-benzamide]	100	7.74
CCCN(CCC)Cc1ccc(NC(=O)c2ccc(CN(Cc3ccc4cccc(O)c4n3)Cc3ncc[nH]3)cc2)cc1 [Compound No. 72, N-(4-dipropylaminomethylphenyl)-4-{[(8-hydroxyquinolin-2-ylmethyl)-(1H-imidazol-2-ylmethyl)-amino]-methyl}-benzamide]	100	8.40
CCCN(CCC)Cc1ccc(NC(=O)c2ccc(CN(Cc3ccc(C)cn3)Cc3nccn3C)cc2)cc1 [Compound No. 76, N-(4-dipropylaminomethylphenyl)-4-{[(1-methyl-1H-imidazol-2-ylmethyl)-(5-methylpyridin-2-ylmethyl)-amino]-methyl}-benzamide]	–	8.15
CCCN(CCC)Cc1ccc(NC(=O)c2ccc(CN(Cc3cc(C)ccn3)Cc3ncc[nH]3)cc2)cc1 [Compound No. 78, N-(4-dipropylaminomethylphenyl)-4-{[N-(1H-imidazol-2-ylmethyl)-(4-methylpyridin-2-ylmethyl)-amino]-methyl}-benzamide]	–	7.72
Cn1ccnc1CN(Cc1ccc(C(=O)Nc2ccc(CNC3CCCCC3)cc2)cc1)Cc1ncc[nH]1 [Compound No. 88, N-(4-cyclohexylaminomethylphenyl)-4-{[(1H-imidazol-2-ylmethyl)-(1-methyl-1H-imidazol-2-ylmethyl)-amino]-methyl}-benzamide]	99	8.30
O=C(Nc1ccc(CNC2CCCCC2)cc1)c1ccc(CN(Cc2ncc[nH]2)Cc2ncc[nH]2)cc1 [Compound No. 89, 4-{[bis(1H-imidazol-2-ylmethyl)-amino]-methyl}-N-(4-cyclohexylaminomethylphenyl)-benzamide]	–	8.05
CCCN(CCC)Cc1ccc(NC(=O)c2ccc(CN(Cc3ncc[nH]3)Cc3nccn3CC)cc2)cc1 [Compound No. 91, N-(4-dipropylaminomethylphenyl)-4-{[(1-ethyl-1H-imidazol-2-ylmethyl)-(1H-imidazol-2-ylmethyl)-amino]-methyl}-benzamide]	–	7.82
CCCN(CCC)Cc1ccc(NC(=O)c2ccc(CN(Cc3ncc[nH]3)Cc3nccn3CCC)cc2)cc1 [Compound No. 92, N-(4-dipropylaminomethylphenyl)-4-{[(1H-imidazol-2-ylmethyl)-(1-propyl-1H-imidazol-2-ylmethyl)-amino]-methyl}-benzamide]	–	7.32
CCCN(CCC)Cc1ccc(NC(=O)c2ccc(CN(Cc3ncc[nH]3)Cc3nccn3CCO)cc2)cc1 [Compound No. 94, N-(4-dipropylaminomethylphenyl)-4-({[1-(2-hydroxyethyl)-1H-imidazol-2-ylmethyl]-(1H-imidazol-2-ylmethyl)-amino}-methyl)-benzamide]	100	8.52
CCCN(CCC)Cc1ccc(NC(=O)c2ccc(CN(Cc3nc[nH]n3)Cc3nccn3C)cc2)cc1 [Compound No. 123, N-(4-di-n-propylaminomethyl-phenyl)-4-{[(1-methyl-imidazol-2-ylmethyl)-(1H-[1,2,4]-triazol-3-ylmethyl)-amino]-methyl}-benzamide]	–	7.17
